Here are results for 2 compounds from paper PMC5550493, “The Conserved Lysine-265 Allosterically Modulates Nucleotide- and Actin-binding Site Coupling in Myosin-2” (Scientific Reports, 2017).

Assay [1] has as its target T1, actomyosin (Dd myosin-2 M765-2R with F-actin) (Dictyostelium discoideum, UniProt P08799).
T1 construct: gene mhcA; M765-2R: mhcA 1-765 fused to Dd alpha-actinin repeats (codons 264-505), C-terminal Asp-Ala-Leu-(His)8 tag kept, expressed in D. discoideum AX3-Orf+; in complex with F-actin purified from rabbit skeletal muscle; with Actin, alpha skeletal muscle (Oryctolagus cuniculus)
Briefly: stopped-flow light scattering, ADP inhibition of ATP-induced actomyosin dissociation. As to conditions: read-out: Dd myosin-2 (M765-2R construct) / WT. It counts as binding. The text has this: stopped-flow light scattering, ADP inhibition of ATP-induced actomyosin dissociation on actomyosin (Dd myosin-2 M765-2R with F-actin)

The target of assay [2] is T1, actomyosin (Dd myosin-2 M765-2R with F-actin). The assay is described as follows: NADH-coupled actin-activated ATPase assay. It counts as biochemical. As to conditions: 20 µM F-actin, 1 mM ATP, 5% DMSO, 25 mM HEPES pH 7.3, 25 mM KCl, 5 mM MgCl2, 25 °C; allosteric.

T1 sequence (P08799 whole entry, looked up, the tested form may be a part): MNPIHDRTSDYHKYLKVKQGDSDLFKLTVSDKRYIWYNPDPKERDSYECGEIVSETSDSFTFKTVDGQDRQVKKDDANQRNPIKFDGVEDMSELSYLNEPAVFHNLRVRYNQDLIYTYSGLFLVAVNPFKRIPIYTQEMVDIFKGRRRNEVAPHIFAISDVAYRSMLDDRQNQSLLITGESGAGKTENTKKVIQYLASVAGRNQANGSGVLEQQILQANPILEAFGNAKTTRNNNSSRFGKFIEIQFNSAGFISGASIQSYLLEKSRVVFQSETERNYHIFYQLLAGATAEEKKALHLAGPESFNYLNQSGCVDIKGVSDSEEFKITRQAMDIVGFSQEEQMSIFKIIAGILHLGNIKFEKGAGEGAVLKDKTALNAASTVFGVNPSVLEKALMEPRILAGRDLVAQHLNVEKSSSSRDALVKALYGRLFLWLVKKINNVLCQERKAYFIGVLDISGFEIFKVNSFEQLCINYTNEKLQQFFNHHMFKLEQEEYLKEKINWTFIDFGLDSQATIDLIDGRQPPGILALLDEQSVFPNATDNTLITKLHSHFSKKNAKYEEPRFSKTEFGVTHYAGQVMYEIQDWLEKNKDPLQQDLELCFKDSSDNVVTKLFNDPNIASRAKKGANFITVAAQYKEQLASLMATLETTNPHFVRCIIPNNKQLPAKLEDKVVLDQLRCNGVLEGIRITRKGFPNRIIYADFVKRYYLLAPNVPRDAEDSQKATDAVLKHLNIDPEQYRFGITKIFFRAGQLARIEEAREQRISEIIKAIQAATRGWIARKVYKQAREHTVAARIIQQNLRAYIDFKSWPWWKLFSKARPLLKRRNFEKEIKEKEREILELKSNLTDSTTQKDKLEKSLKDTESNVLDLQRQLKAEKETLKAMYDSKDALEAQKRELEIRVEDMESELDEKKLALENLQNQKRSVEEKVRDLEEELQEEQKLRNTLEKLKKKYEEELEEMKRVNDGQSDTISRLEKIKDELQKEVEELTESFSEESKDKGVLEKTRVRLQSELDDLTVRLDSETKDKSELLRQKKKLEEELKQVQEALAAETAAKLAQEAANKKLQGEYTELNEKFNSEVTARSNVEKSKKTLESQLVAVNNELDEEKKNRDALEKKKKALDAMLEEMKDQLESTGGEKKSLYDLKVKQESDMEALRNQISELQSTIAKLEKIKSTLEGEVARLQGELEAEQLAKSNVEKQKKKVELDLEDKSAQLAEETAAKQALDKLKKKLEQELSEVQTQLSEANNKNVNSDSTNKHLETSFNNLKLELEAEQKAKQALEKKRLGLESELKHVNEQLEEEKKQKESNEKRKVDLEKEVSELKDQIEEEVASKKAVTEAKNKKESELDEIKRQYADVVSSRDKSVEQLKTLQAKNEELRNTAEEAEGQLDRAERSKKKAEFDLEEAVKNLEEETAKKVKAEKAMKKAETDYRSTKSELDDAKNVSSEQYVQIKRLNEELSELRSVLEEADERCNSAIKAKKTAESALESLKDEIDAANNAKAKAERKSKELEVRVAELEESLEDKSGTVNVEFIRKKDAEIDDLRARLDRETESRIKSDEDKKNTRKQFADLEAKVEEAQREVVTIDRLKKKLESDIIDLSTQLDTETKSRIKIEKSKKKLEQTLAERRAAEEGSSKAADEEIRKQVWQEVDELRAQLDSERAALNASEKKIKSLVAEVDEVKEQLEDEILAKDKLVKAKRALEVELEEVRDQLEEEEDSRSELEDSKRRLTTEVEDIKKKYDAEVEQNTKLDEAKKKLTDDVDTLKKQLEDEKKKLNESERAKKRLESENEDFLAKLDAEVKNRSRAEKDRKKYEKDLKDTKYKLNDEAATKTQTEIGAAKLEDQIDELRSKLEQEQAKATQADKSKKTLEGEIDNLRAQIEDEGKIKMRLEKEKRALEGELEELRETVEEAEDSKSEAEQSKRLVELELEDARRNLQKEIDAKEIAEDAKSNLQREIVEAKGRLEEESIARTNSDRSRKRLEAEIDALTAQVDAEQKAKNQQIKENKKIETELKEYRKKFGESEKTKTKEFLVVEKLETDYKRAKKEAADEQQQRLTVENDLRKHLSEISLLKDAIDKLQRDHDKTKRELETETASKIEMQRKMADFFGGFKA

Take `Nc1ncnc2c1ncn2[C@@H]1O[C@H](COP(=O)(O)OP(=O)(O)O)[C@@H](O)[C@H]1O` [ADP]: in assay [1], the Kd amounted to 73.3 ± 7 µM.

In the case of `Oc1c(Br)cc(Br)cc1-c1[nH]c(Br)c(Br)c1Br` [pentabromopseudilin], the “n-fold inhibition at 100 μM PBP” value in assay [2] came to 7 fold.
